Source: PMC10141580, “Cyclic Dichalcogenides Extend the Reach of Bioreductive Prodrugs to Harness Thiol/Disulfide Oxidoreductases: Applications to seco-Duocarmycins Targeting the Thioredoxin System” (ACS Central Science, 2023)
Values joined by “and” are separate entries in the source; they are usually repeats but may differ in a detail not shown here. Equal values may be shown once. Read-outs that look alike come from different tables or passages of the source.

System: panel of 140 standard cancer cell lines
Assay: ProliFiler-140 cancer cell line screen (CellTiterGlo, 72 h)
Type: cell-based
Settings: for IC50: Homo sapiens
Procedure: Incubations were performed for 72 h before automated viability readout with CellTiterGlo (Figure 8).
End of Figure S11 (part 5 of 5): ProliFiler-140 cancer cell line screening for cytotoxicity of the prodrugs.
8-data-point dose response curves from CellTiter-Glo® viability readout.
ProliFiler-140 cell line panel part V

COc1cc2cc(C(=O)N3C[C@@H](CCl)c4c3cc(OC(=O)N3CCN(C(=O)CCC(=O)N5CCN(C)CC5)[C@H]5CSSC[C@H]53)c3ccccc43)[nH]c2c(OC)c1OC [P-SS66C-CBI-TMI]
IC50 (KG-1a, read-out: IC50 [M] (ProliFiler-140), KG-1 a (Blood)): 1.07e-07 M
IC50 (KMS-12-BM, read-out: IC50 [M] (ProliFiler-140), KMS-12-BM (Blood)): 3.3e-08 M
IC50 (LN-229, read-out: IC50 [M] (ProliFiler-140), LN229 (Brain)): 1.33e-07 M
IC50 (LNCaP, read-out: IC50 [M] (ProliFiler-140), LnCap (Prostate)): 2.7e-08 M
IC50 (LoVo, read-out: IC50 [M] (ProliFiler-140), LOVO (Colon)): 1.93e-08 M
IC50 (MCF7, MCF-7): 3.1e-08 M
IC50 (MCF7, read-out: IC50 [M] (ProliFiler-140), MCF-7 (Breast)): 3.1e-08 M
IC50 (MDA-MB-231, read-out: IC50 [M] (ProliFiler-140), MDA MB 231 (Breast)): 1.36e-07 M
IC50 (MDA-MB-435, MDA MB 435 (Skin), read-out: IC50 [M] (ProliFiler-140)): 1.3e-07 M
IC50 (MDA-MB-468, MDA-MB-468): 1.9e-08 M
IC50 (MDA-MB-468, read-out: IC50 [M] (ProliFiler-140), MDA-MB-468 (Breast)): 1.9e-08 M
IC50 (MEC1, read-out: IC50 [M] (ProliFiler-140), MEC-1 (Blood)): 1.1e-08 M
IC50 (MIA PaCa-2, read-out: IC50 [M] (ProliFiler-140), Mia PaCA 2 (Pancreas)): 8.56e-08 M
IC50 (MKN-1, read-out: IC50 [M] (ProliFiler-140), MKN-1 (Stomach)): 1.4e-07 M
IC50 (MKN-45, read-out: IC50 [M] (ProliFiler-140), MKN-45 (Stomach)): 8.2e-08 M
IC50 (MOLM-13, read-out: IC50 [M] (ProliFiler-140), MOLM-13 (Blood)): 5.3e-09 M
IC50 (MOLT-4, read-out: IC50 [M] (ProliFiler-140), MOLT-4 (Blood)): 8.6e-09 M
IC50 (MV4-11, read-out: IC50 [M] (ProliFiler-140), MV4-11 (Blood)): 1.5e-09 M
IC50 (NALM-6, read-out: IC50 [M] (ProliFiler-140), NALM-6 (Blood)): 2.47e-09 M
IC50 (NCI-H82, read-out: IC50 [M] (ProliFiler-140), NCI-H82 (Lung)): 8.8e-08 M
IC50 (NCI-H292, read-out: IC50 [M] (ProliFiler-140), NCI-H292 (Lung)): 3.8e-08 M
IC50 (NCI-H441, read-out: IC50 [M] (ProliFiler-140), NCI-H441 (Lung)): 5.05e-08 M
IC50 (NCI-H460, read-out: IC50 [M] (ProliFiler-140), H460 (Lung)): 5.5e-09 M
IC50 (NCI-H838, read-out: IC50 [M] (ProliFiler-140), NCI-H838 (Lung)): 7.4e-08 M
IC50 (NCI-H1048, read-out: IC50 [M] (ProliFiler-140), NCI-H1048 (Lung)): 4e-09 M
IC50 (NCI-H1299, read-out: IC50 [M] (ProliFiler-140), H1299 (Lung)): 5.38e-08 M
IC50 (NCI-H1437, read-out: IC50 [M] (ProliFiler-140), NCI-H1437 (Lung)): 1.85e-08 M
IC50 (NCI-H1563, read-out: IC50 [M] (ProliFiler-140), NCI-H1563 (Lung)): 1.1e-07 M
IC50 (NCI-H1573, read-out: IC50 [M] (ProliFiler-140), NCI-H1573 (Lung)): 9e-08 M
IC50 (NCI-H1581, read-out: IC50 [M] (ProliFiler-140), NCI-H1581 (Lung)): 4.66e-08 M
IC50 (NCI-H1703, read-out: IC50 [M] (ProliFiler-140), NCI-H1703 (Lung)): 5.1e-08 M
IC50 (NCI-H1838, read-out: IC50 [M] (ProliFiler-140), NCI-H1838 (Lung)): 7.7e-08 M
IC50 (NCI-H2009, read-out: IC50 [M] (ProliFiler-140), NCI-H2009 (Lung)): 2.66e-08 M
IC50 (NCI-H2228, read-out: IC50 [M] (ProliFiler-140), H2228 (Lung)): 4.53e-08 M
IC50 (NCI-H2286, read-out: IC50 [M] (ProliFiler-140), NCI-H2286 (Lung)): 1.7e-08 M
IC50 (NCI-N87, read-out: IC50 [M] (ProliFiler-140), NCI-N87 (Stomach)): 7.5e-08 M
IC50 (OCI-AML-3, read-out: IC50 [M] (ProliFiler-140), OCI-AML3 (Blood)): 1.3e-08 M
IC50 (OCI-AML-5, read-out: IC50 [M] (ProliFiler-140), OCI-AML5 (Blood)): 6e-09 M
IC50 (OCI-LY19, read-out: IC50 [M] (ProliFiler-140), OCI-LY19 (Blood)): 2.83e-09 M
IC50 (OPM-2, read-out: IC50 [M] (ProliFiler-140), OPM-2 (Blood)): 2.61e-08 M
IC50 (OVCAR-3, read-out: IC50 [M] (ProliFiler-140), OVCAR-3 (Ovary)): 7.9e-08 M
IC50 (P31-FUJ, read-out: IC50 [M] (ProliFiler-140), P31/FUJ (Blood)): 2.3e-08 M
IC50 (PANC-1, read-out: IC50 [M] (ProliFiler-140), PANC-1 (Pancreas)): 2e-07 M
IC50 (RL95-2, read-out: IC50 [M] (ProliFiler-140), RL95-2 (Endometrium)): 1.25e-07 M
IC50 (RPMI-8226, RPMI 8226): 1.2e-08 M
IC50 (RPMI-8226, read-out: IC50 [M] (ProliFiler-140), RPMI 8226 (Blood)): 1.19e-08 M
IC50 (SAOS-2, read-out: IC50 [M] (ProliFiler-140), Saos-2 EC (Bone)): 6.63e-08 M
IC50 (SCLC-21H, read-out: IC50 [M] (ProliFiler-140), SCLC-21H (Lung)): 2.56e-08 M
IC50 (SJSA-1, read-out: IC50 [M] (ProliFiler-140), SJSA-1 (Bone)): 9.77e-08 M
IC50 (SK-BR-3, read-out: IC50 [M] (ProliFiler-140), SK-BR-3 (Breast)): 4.2e-08 M
IC50 (SK-ES1, read-out: IC50 [M] (ProliFiler-140), SK-ES-1 (Bone)): 2.71e-09 M
IC50 (SK-LU-1, read-out: IC50 [M] (ProliFiler-140), SK-LU-1 (Lung)): 2.3e-08 M
IC50 (SK-MEL3, read-out: IC50 [M] (ProliFiler-140), SK-MEL-3 (Skin)): 1.6e-07 M
IC50 (SK-N-FI, read-out: IC50 [M] (ProliFiler-140), SK-N-FI (Brain)): 1.39e-07 M
IC50 (SK-N-MC, read-out: IC50 [M] (ProliFiler-140), SK-N-MC (Brain)): 1.6e-09 M
IC50 (SK-N-SH, read-out: IC50 [M] (ProliFiler-140), SK-N-SH (Brain)): 1.1e-07 M
IC50 (SK-OV-3, read-out: IC50 [M] (ProliFiler-140), SK-OV3 (Ovary)): 3.72e-08 M
IC50 (SNU1, read-out: IC50 [M] (ProliFiler-140), SNU-1 (Stomach)): 2.3e-08 M
IC50 (SNU-16, read-out: IC50 [M] (ProliFiler-140), SNU-16 (Stomach)): 6.23e-08 M
IC50 (SU-DHL-5, read-out: IC50 [M] (ProliFiler-140), SU-DHL-5 (Blood)): 2.6e-09 M
IC50 (SW480, read-out: IC50 [M] (ProliFiler-140), SW480 (Colon)): 5.51e-08 M
IC50 (SW948, read-out: IC50 [M] (ProliFiler-140), SW948 (Colon)): 1.43e-07 M
IC50 (SW1783, read-out: IC50 [M] (ProliFiler-140), SW-1783 (Brain)): 4.85e-08 M
IC50 (SW-620, SW620): 1.5e-07 M
IC50 (SW-620, read-out: IC50 [M] (ProliFiler-140), SW620 (Colon)): 1.53e-07 M
IC50 (SiHa, read-out: IC50 [M] (ProliFiler-140), SiHa (Ovary)): 1.13e-07 M
IC50 (T47D, T-47D): 9.8e-08 M
IC50 (T47D, read-out: IC50 [M] (ProliFiler-140), T-47D (Breast)): 9.8e-08 M
IC50 (T98G, read-out: IC50 [M] (ProliFiler-140), T98G (Brain)): 8.08e-08 M
IC50 (U2OS, read-out: IC50 [M] (ProliFiler-140), U2OS (Bone)): 3.19e-08 M
IC50 (U-87 MG, read-out: IC50 [M] (ProliFiler-140), U87MG (Brain)): 1.5e-07 M
IC50 (U-118-MG, read-out: IC50 [M] (ProliFiler-140), U118MG (Brain)): 1.86e-07 M
IC50 (U-251, read-out: IC50 [M] (ProliFiler-140), U251MG (Brain)): 1.2e-07 M
IC50 (U-266, read-out: IC50 [M] (ProliFiler-140), U-266 (Blood)): 9.38e-09 M
IC50 (U-937, read-out: IC50 [M] (ProliFiler-140), U-937 (Blood)): 1.15e-08 M
IC50 (ZR-75-1, read-out: IC50 [M] (ProliFiler-140), ZR-75-1 (Breast)): 3.07e-07 M
Reductive Activation Index (Hs 746T (Stomach)): 13
Reductive Activation Index (HuH7 (Liver)): 6.45
Reductive Activation Index (Hutu 80 (Duodenum)): 5.62 and 5.6
Reductive Activation Index (JIMT-1 (Breast)): 15
Reductive Activation Index (K562 (Blood)): 8.6
Reductive Activation Index (KARPAS 299 (Blood)): 6.55
Reductive Activation Index (KG-1 (Blood)): 3.24
